Assay results: paper PMC6422423, “Constitutively active BRS3 is a genuinely orphan GPCR in placental mammals” (PLoS Biology, 2019)

Key:
[1] = tested on: BRS3 receptors in placental mammals; test: ERK1/2 phosphorylation, placental pooled; format: cell-based, human, mouse, dog, and aardvark; details: 1,000 nM peptide, 0/2/5 min, HEK293
Protocol: (§1) For ERK1/2 phosphorylation, HEK293 cells were seeded in 24-well plates and transfected with GRPR, NMBR, BRS3, mutants of different species’ BRS3, or an empty vector plasmid, pcDNA3.1-V5-His plasmid (300 ng). […] Each sample with an equal amount of protein was mixed with 6×SDS sample buffer, boiled for 5 min, and separated on 10% SDS-polyacrylamide gel electrophoresis (PAGE) before transferring the proteins onto a PVDF membrane. The membranes were then blocked at room temperature for 1 h with 5% milk powder in Tris-buffered saline-Tween (TBST), followed by subsequent incubation at 4°C overnight in TBST containing the different primary antibodies (1:1,000 dilution). After washing three times (10 min each time) with TBST, the membranes were incubated for 1 h in TBST containing the secondary antibodies (1:2,000 dilution), followed by washing three times (10 min each time) with TBST, prior to detection by chemiluminescence.

[2] = tested on: BRS3 receptors in nonplacental vertebrates; test: Intracellular calcium assay, nonplacental pooled; format: cell-based, koala, platypus, chicken, turtle, frog, and spotted gar; details: 10 nM peptide, HEK293
Protocol: (§2) Intracellular calcium was measured using the non-wash calcium assay Fluo8 kit (ab112129, Abcam) according to the manufacturer’s instructions. Briefly, HEK293 cells were seeded in 24-well plates and were transfected with GRPR, NMBR, BRS3, or the empty vector plasmid pcDNA3.1-V5-His (300 ng) and incubated overnight at 37°C with 5% CO2. The next day, the cells were replated into a 96-well assay plate (black plate and clear bottom). After 12 h, growth media were aspirated, and calcium dye was added. […] The basal fluorescence intensity was recorded 15 times at 1 Hz for […]. The results were normalized to the average basal fluorescence intensity in ratio, and the peak response was used for the result calculation. Calcium fold was calculated using no stimulation data as standard value.

[3] = tested on: chicken BRS3 (cBRS3); test: Intracellular calcium assay (WT and mutants); format: cell-based, Gallus gallus; details: 10 nM peptide, HEK293, Fluo8, cBRS3
Protocol: as §2

[4] = biological target: T1, NMBR (Homo sapiens, UniProt P28336); test: Radioligand binding (competition); details: [125I]-Tyr-NMB
T1 construct: HA; expressed in transfected cells; host or cells: HEK293
T1 sequence (P28336 whole entry, species assumed): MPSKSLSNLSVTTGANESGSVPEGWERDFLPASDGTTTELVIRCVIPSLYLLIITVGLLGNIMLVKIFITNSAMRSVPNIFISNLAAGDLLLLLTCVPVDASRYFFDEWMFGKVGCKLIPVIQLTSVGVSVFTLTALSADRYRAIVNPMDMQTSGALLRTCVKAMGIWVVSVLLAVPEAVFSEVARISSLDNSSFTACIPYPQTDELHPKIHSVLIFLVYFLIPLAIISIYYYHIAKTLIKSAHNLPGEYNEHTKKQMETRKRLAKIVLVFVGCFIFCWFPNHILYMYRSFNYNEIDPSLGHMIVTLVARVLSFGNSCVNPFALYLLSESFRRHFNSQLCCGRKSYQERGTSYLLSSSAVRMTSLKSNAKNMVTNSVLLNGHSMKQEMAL
Protocol: HEK293 cells were seeded in a 10-cm tissue culture dish at a density of 10^6 cells per dish and grown overnight at 37°C in growth medium. The following morning, 5 μg of different species’ BRS3 plasmids were transfected. After 6 h, the medium was replaced with growth medium. Cells were maintained at 37°C in a 5% CO2 atmosphere and used 48 h later for binding assays. The positive control group included transfected GRPR and NMBR; the test group consisted of transfected BRS3 from different species. […] The cell concentration was adjusted to between 0.05 and 4 × 10^6 cells/ml for each receptor such that less than 20% of the total added radioactive ligand was bound during the incubation, and the results were compared to cells transfected with GRPR or NMBR adjusted in concentration to bind a similar amount of ligand. After the incubation, 100 μl aliquots were added to 1.5-ml microfuge tubes, which contained 100 μl of binding buffer to determine the total radioactivity. […] The amount of radioactivity bound to the cells was measured in a Cobra II Gamma counter (Packard Instruments). Binding was expressed as the percentage of total radioactivity that was associated with the cell pellet. […] Each point was measured in duplicate, and each experiment was replicated at least four times. […] All the experiment data were calculated using 1 pM ligand-treated as 100% control.

[5] = tested on: turtle BRS3 (tBRS3); test: ERK1/2 phosphorylation (WT and mutants); format: cell-based, Chrysemys picta
Protocol: as §1

[6] = biological target: chicken BRS3 (cBRS3); test: Radioligand binding (competition); parameters: species or system Gallus gallus; details: transfected HEK293 cells, 1 h 21°C, pH 7.4, mean ± SE, at least three experiments
Protocol: HEK293 cells were seeded in a 10-cm tissue culture dish at a density of 10^6 cells per dish and grown overnight at 37°C in growth medium. The following morning, 5 μg of different species’ BRS3 plasmids were transfected. After 6 h, the medium was replaced with growth medium. Cells were maintained at 37°C in a 5% CO2 atmosphere and used 48 h later for binding assays. The positive control group included transfected GRPR and NMBR; the test group consisted of transfected BRS3 from different species. […] The cell concentration was adjusted to between 0.05 and 4 × 10^6 cells/ml for each receptor such that less than 20% of the total added radioactive ligand was bound during the incubation, and the results were compared to cells transfected with GRPR or NMBR adjusted in concentration to bind a similar amount of ligand. After the incubation, 100 μl aliquots were added to 1.5-ml microfuge tubes, which contained 100 μl of binding buffer to determine the total radioactivity. The bound tracer was separated from unbound tracer by pelleting the cells through the binding buffer by centrifugation at 10,000g in a Microfuge E (Beckman) for 3 min. The supernatant was aspirated, and the pelleted cells were rinsed twice with a washing buffer that contained 1% (w/v) BSA in PBS. The amount of radioactivity bound to the cells was measured in a Cobra II Gamma counter (Packard Instruments). Binding was expressed as the percentage of total radioactivity that was associated with the cell pellet. […] Each point was measured in duplicate, and each experiment was replicated at least four times. […] All the experiment data were calculated using 1 pM ligand-treated as 100% control.

[7] = tested on: BRS3 receptors in placental mammals; test: Intracellular calcium assay, placental pooled; format: cell-based, human, mouse, dog, and aardvark; details: 10 nM peptide, HEK293
Protocol: as §2

[8] = tested on: BRS3 receptors in nonplacental vertebrates; test: ERK1/2 phosphorylation, nonplacental pooled; format: cell-based, koala, platypus, chicken, turtle, frog, and spotted gar; details: 1,000 nM peptide, 0/2/5 min, HEK293
Protocol: as §1

[9] = tested on: spotted gar BRS3 (sBRS3); test: Intracellular calcium assay (WT and mutants); format: cell-based, Lepisosteus oculatus; details: for Calcium fold: 10 nM peptide, HEK293, Fluo8, sBRS3; for Intracellular Ca2+, mutants (in words): sBRS3 Q127R, P205S, and R294H
Protocol: as §2

[10] = tested on: chicken BRS3 (cBRS3); test: ERK1/2 phosphorylation (WT and mutants); format: cell-based, Gallus gallus; details: cBRS3 P205S; exception to the significant effects
Protocol: as §1

With “GSHWAVGHLM-NH2 [GRP, gastrin-releasing peptide]” the “ERK phosphorylation (in words)” value [1] was “could not be activated”, the “Intracellular Ca2+ (in words)” value [2] was “remarkable increase of Ca^2+ ions in cells” and the Calcium fold ([3]; replicate 1) was 5.1641 fold. For the same substance, the Calcium fold ([3]; replicate 2) was 5.5593 fold, the Calcium fold ([3]; replicate 3) was 5.8165 fold and the “Inhibition of NMBR–NMB binding (in words)” value [4] was “cannot inhibit”. For the same substance, the “ERK phosphorylation, mutant (in words)” value ([5]; tBRS3 P205S) was “the effect is not obvious”, the “ERK phosphorylation, mutant (in words)” value ([5]; tBRS3 Q127R) was “almost could not be detected” and the “ERK phosphorylation, mutant (in words)” value ([5]; tBRS3 R294H) was “almost could not be detected”. For the same substance, the IC50 ([6]; 50 pM [125I]-Tyr42-GRP) was 0.15 nM, the IC50 ([6]; 50 pM [125I]-Tyr-NMB) was 0.18 nM and the “Intracellular Ca2+ (in words)” value [7] was “no stimulation was observed”. The “ERK phosphorylation (in words)” value [8] was “increase in the levels of phosphorylated ERK”, the Calcium fold ([9]; replicate 1) was 4.5257 fold and the Calcium fold ([9]; replicate 2) was 4.9378 fold. For the same substance, the Calcium fold ([9]; replicate 3) was 5.3682 fold and the “Intracellular Ca2+, mutants (in words)” value [9] was “significant effects”.

With neuromedin B [NMB] the “ERK phosphorylation (in words)” value [1] was “could not be activated”, the “Intracellular Ca2+ (in words)” value [2] was “remarkable increase of Ca^2+ ions in cells” and the “ERK phosphorylation, mutant (in words)” value [10] was “excepting P205S of cBRS3 for ERK phosphorylation activated by NMB”. The “ERK phosphorylation, mutant (in words)” value ([5]; tBRS3 P205S) was “the effect is not obvious”, the “ERK phosphorylation, mutant (in words)” value ([5]; tBRS3 Q127R) was “almost could not be detected” and the “ERK phosphorylation, mutant (in words)” value ([5]; tBRS3 R294H) was “almost could not be detected”. The IC50 ([6]; 50 pM [125I]-Tyr42-GRP) was 1.35 nM, the IC50 ([6]; 50 pM [125I]-Tyr-NMB) was 2.26 nM and the “Intracellular Ca2+ (in words)” value [7] was “no stimulation was observed”. The “ERK phosphorylation (in words)” value [8] was “increase in the levels of phosphorylated ERK” and the “Intracellular Ca2+, mutants (in words)” value [9] was “significant effects”.
